Measured values from US11046691B1 (IDEAYA BIOSCIENCES, INC., priority 2018, dated 2021).

biological target: hMAT2A (Homo sapiens (Human), UniProt P31153); test: Phosphate Sensor Fluorescence Assay (MAT2A enzyme inhibition); format: biochemical; conditions: L-methionine 500 uM, ATP 500 uM, class symbols
Procedure, shortened: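 Recombinant MAT2A preincubated 15 min at room temperature with compound, then reacted 1 h at room temperature with 500 uM L-methionine and 500 uM ATP in Tris pH 7.5 buffer containing PNP/7-MEG.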

Sequence of hMAT2A (P31153 whole entry): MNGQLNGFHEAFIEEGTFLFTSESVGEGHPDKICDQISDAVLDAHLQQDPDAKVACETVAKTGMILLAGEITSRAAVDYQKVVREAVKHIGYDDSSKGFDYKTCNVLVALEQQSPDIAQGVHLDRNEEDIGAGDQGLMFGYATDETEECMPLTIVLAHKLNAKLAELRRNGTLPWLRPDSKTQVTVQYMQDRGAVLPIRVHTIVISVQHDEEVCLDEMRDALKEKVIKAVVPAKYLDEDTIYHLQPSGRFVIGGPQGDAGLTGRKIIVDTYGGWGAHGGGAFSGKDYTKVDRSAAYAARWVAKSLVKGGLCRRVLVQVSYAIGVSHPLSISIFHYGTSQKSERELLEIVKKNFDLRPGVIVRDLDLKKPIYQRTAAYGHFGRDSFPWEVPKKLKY

Q: Which IC50 does the source give for `O=c1nc(N2CC[C@H]2CO)c2ccc(Cl)cc2n1-c1ccccc1` [Example 172, (S)-7-chloro-4-(2-(hydroxymethyl)-azetidin-1-yl)-1-phenylquinazolin-2(1H)-one] here?
A: Its IC50 is < 0.2 µM.

Q: For `CNc1nc(=O)n(-c2cccc(C#N)c2C)c2cc(Cl)ccc12` [Example 173, 3-[7-chloro-4-(methylamino)-2-oxo-hydroquinazolinyl]-2-methylbenzene-carbonitrile], which IC50 is on record?
A: Its IC50 is < 0.2 µM.

Q: With `CNC(=O)c1cccc(-n2c(=O)nc(NC)c3ccc(Cl)cc32)c1` [Example 175] as the molecule, how does the IC50 read?
A: The IC50 was < 0.2 µM.

Q: How did the IC50 turn out when `O=c1nc(N2CCCC2)c2ccc(C(F)(F)F)nc2n1-c1ccccc1Cl` [Example 176, 1-(2-chlorophenyl)-4-(pyrrolictin-1-yl)-7-(trifluoromethyl)pyrido[2,3-d]pyrimidin-2(1H)-one] was run?
A: Its IC50 is < 0.2 µM.

Q: How did the IC50 turn out when `CNc1nc(=O)n(-c2ccccc2Cl)c2nc(C(F)(F)F)ccc12` [Example 178, 1-(2-chlorophenyl)-4-(methylamino)-7-(trifluoromethyl)pyrido[2,3-d]pyrimidin-2(1H)-one] was run?
A: Its IC50 is < 0.2 µM.

Q: `CNc1nc(=O)n(-c2cccc(C#N)c2)c2nc(C(F)(F)F)ccc12` [Example 179, 3-[4-(methylamino)-2-oxo-7-(trifluoro-methyl)pyrido[2,3-d]pyrimidin-1(2H)-yl)benzonitrile] was tested. Which IC50 did it give?
A: Its IC50 is < 0.2 µM.

Q: `CNc1nc(=O)n(-c2ccccc2C)c2nc(C(F)(F)F)ccc12` [Example 180, 4-(methylamino)-1-(2-methylphenyl)-7-(trifluoromethyl)pyrido[2,3-d]pyrimidin-2(1H)-one] was tested. Which IC50 did it give?
A: Its IC50 is < 0.2 µM.

Q: How did the IC50 turn out when `O=c1nc(N2CC[C@H](O)C2)c2ccc(C(F)(F)F)nc2n1-c1ccccc1Cl` [Example 181, (S)-1-(2-chlorophenyl)-4-(3-hydroxy-pyrrolidin-1-yl)-7-(trifluoromethyl)-pyrido[2,3-d]pyrimidin-2(1H)-one] was run?
A: The IC50 was < 0.2 µM.

Q: How did the IC50 turn out when `N#Cc1cccc(-n2c(=O)nc(N3CC[C@H](O)C3)c3ccc(C(F)(F)F)nc32)c1` [Example 182, (S)-3-(4-(3-hydroxypyrrolidin-1-yl)-2-oxo-7-(trifluoromethyl)pyrido[2,3-d]pyrimidin-1(2H)-yl)benzonitrile] was run?
A: The IC50 was < 0.2 µM.

Q: For `Cc1ccccc1-n1c(=O)nc(N2CC[C@@H](O)C2)c2ccc(C(F)(F)F)nc21` [Example 183, (R)-4-(3-hydroxypyrrolidin-1-yl)-1-(o-tolyl)-7-(trifluoromethyl)pyrido[2,3-d]-pyrimidin-2(1H)-one], which IC50 is on record?
A: Its IC50 is < 0.2 µM.

Q: How did the IC50 turn out when `CNc1nc(=O)n(-c2ccccc2)c2nc(C(F)(F)F)ccc12` [Example 184, 4-(methylamino)-1-phenyl-7-(trifluoromethyl)pyrido[2,3-d]-pyrimidin-2(1H)-one] was run?
A: The IC50 was < 0.2 µM.

Q: Which IC50 does the source give for `CNc1nc(=O)n(-c2ccccc2)c2cc(Cl)cc(OCCO)c12` [Example 185, 7-chloro-5-(2-hydroxyethoxy)-4-(methylamino)-1-phenylhydro-quinazolin-2-one] here?
A: Its IC50 is < 0.2 µM.

Q: With `O=c1nc(N2CCC2CO)c2ccc(Cl)cc2n1-c1ccccc1` (stereo not drawn) [Example 186, 7-chloro-4-[2-(hydroxymethyl)azetidin-1-yl]-1-phenylhydroquinazolin-2-one] as the molecule, how does the IC50 read?
A: Its IC50 is < 0.2 µM.

Q: For `O=c1nc(N2CC[C@@H]2CO)c2ccc(Cl)cc2n1-c1ccccc1` [Example 187, (R)-7-chloro-4-(2-(hydroxymethyl)-azetidin-1-yl)-1-phenylquinazolin-2(1H)-one], which IC50 is on record?
A: The IC50 was 0.2 to 0.5 µM.

Q: `CNc1nc(=O)n(-c2nccn2C)c2cc(Cl)ccc12` [Example 188] was tested. Which IC50 did it give?
A: The IC50 was 0.2 to 0.5 µM.

Q: With `CO[C@@H]1CCN(c2nc(=O)n(-c3ccccc3)c3cc(Cl)ccc23)C1` [Example 189, (R)-7-chloro-4-(3-methoxypyrrolidin-1-yl)-1-phenylquinazolin-2(1H)-one] as the molecule, how does the IC50 read?
A: The IC50 was < 0.2 µM.

Q: `CNc1nc(=O)n(-c2ccccc2)c2cc(Cl)c(C#N)cc12` [Example 190, 7-chloro-4-(methylamino)-2-oxo-1-phenylhydroquinazoline-6-carbonitrile] was tested. Which IC50 did it give?
A: The IC50 was 1 to 10 µM.

Q: For `CO[C@H]1CCN(c2nc(=O)n(-c3ccccc3)c3cc(Cl)ccc23)C1` [Example 196, (S)-7-chloro-4-(3-methoxypyrrolidin-1-yl)-1-phenylquinazolin-2(1H)-one], which IC50 is on record?
A: Its IC50 is < 0.2 µM.

Q: With `CN(Cc1ccccc1)c1nc(=O)n(-c2ccccc2)c2cc(Cl)ccc12` [Example 197, 7-chloro-4-[methylbenzylamino]-1-phenylhydroquinazolin-2-one] as the molecule, how does the IC50 read?
A: The IC50 was < 0.2 µM.

Q: How did the IC50 turn out when `COC(=O)C1CN(c2nc(=O)n(-c3ccccc3)c3cc(Cl)ccc23)C1` [Example 199, methyl 1-(7-chloro-2-oxo-1-phenyl-1,2-dihydroquinazolin-4-yl)azetidine-3-carboxylate] was run?
A: Its IC50 is < 0.2 µM.

Q: For `CS(=O)(=O)Nc1nc(=O)n(-c2ccccc2)c2cc(Cl)ccc12` [Example 200, N-(7-chloro-2-oxo-1-phenyl-1,2-dihydroquinazolin-4-yl)methane-sulfonamide], which IC50 is on record?
A: Its IC50 is 1 to 10 µM.

Q: With `NC1CCN(c2nc(=O)n(-c3ccccc3)c3cc(Cl)ccc23)C1` (stereo not drawn) [Example 201, 4-(3-aminopyrrolidin-1-yl)-7-chloro-1-phenylquinazolin-2(1H)-one] as the molecule, how does the IC50 read?
A: The IC50 was < 0.2 µM.

Q: `CC(=O)Nc1nc(=O)n(-c2ccccc2)c2cc(Cl)ccc12` [Example 203, N-(7-chloro-2-oxo-1-phenyl-1,2-dihydroquinazolin-4-yl)acetamide] was tested. Which IC50 did it give?
A: Its IC50 is 0.2 to 0.5 µM.

Q: How did the IC50 turn out when `CNC(=O)C1CN(c2nc(=O)n(-c3ccccc3)c3cc(Cl)ccc23)C1` [Example 204, 1-(7-chloro-2-oxo-1-phenyl-1,2-dihydroquinazolin-4-yl)-N-methyl-azetidine-3-carboxamide] was run?
A: The IC50 was < 0.2 µM.

Q: `CN(CC(F)F)c1nc(=O)n(-c2ccccc2)c2cc(Cl)ccc12` [Example 205, 4-[(2,2-difluoroethyl)methylamino]-7-chloro-1-phenylhydroquinazolin-2-one] was tested. Which IC50 did it give?
A: The IC50 was < 0.2 µM.

same assay, conditions: L-methionine 500 uM, ATP 500 uM, numeric bound

Q: `O=c1ncc2ccc(Cl)cc2n1-c1ccccc1` [Example 191, 7-chloro-1-phenylhydroquinazolin-2-one] was tested. Which IC50 did it give?
A: The IC50 was > 10 µM.

Q: `CNc1nc(=O)n(-c2ccccc2)c2cc(C)cnc12` [Example 192, 7-methyl-4-(methylamino)-1-phenyl-pyrido[3,2-d]pyrimidin-2(1H)-one] was tested. Which IC50 did it give?
A: The IC50 was > 10 µM.

Q: With `Cc1cnc2c(=O)[nH]c(=O)n(-c3ccccc3)c2c1` [Example 193, 7-methyl-1-phenylpyrido[3,2-d]-pyrimidine-2,4(1H,3H)-dione] as the molecule, how does the IC50 read?
A: The IC50 was > 10 µM.

Q: For `O=C(O)[C@@H]1CCCN1c1nc(=O)n(-c2ccccc2)c2cc(Cl)ccc12` [Example 195, (2S)-1-(7-chloro-2-oxo-1-phenylhydro-quinazolin-4-yl)pyrrolidine-2-carboxylic acid], which IC50 is on record?
A: The IC50 was > 10 µM.

Q: Which IC50 does the source give for `CNc1nc(=O)n(-c2ccccc2)c2cc(Cl)cc(OC3COC3)c12` [Example 202, 7-chloro-4-(methylamino)-5-oxetan-3-yloxy-1-phenylhydroquinazolin-2-one] here?
A: The IC50 was > 10 µM.

Q: `O=C1CCN1c1nc(=O)n(-c2ccccc2)c2cc(Cl)ccc12` [Example 206, 7-chloro-4-(2-oxoazetidin-1-yl)-1-phenylhydroquinazolin-2-one] was tested. Which IC50 did it give?
A: Its IC50 is > 10 µM.

Q: For `CNc1nc(=O)n(-c2ccccc2)c2cc(Cl)cc(-n3cccn3)c12` [Example 208, 7-chloro-4-(methylamino)-1-phenyl-5-(1H-pyrazol-1-yl)quinazolin-2(1H)-one], which IC50 is on record?
A: Its IC50 is > 10 µM.

Q: `CNc1nc(=O)n(-c2ccccc2)c2cc(Cl)cc(-n3nccn3)c12` [Example 209, 7-chloro-4-(methylamino)-1-phenyl-5-(1,2,3-triazol-2-yl)quinazolin-2(1H)-one] was tested. Which IC50 did it give?
A: The IC50 was > 10 µM.
